{"source": "patent US20200022951A1", "about": "“MULTIVITAMIN COMPOSITION FOR IMPROVING VERBAL FLUENCY, DECREASING PERFORMANCE ANXIETY SYMPTOMS AND METHOD FOR PREPARING SAME” (priority 2017, published 2020)", "test_system": "individuals with performance anxiety", "experiment": "trials using the composition: anxiety and speech fluency", "type": "in vivo", "conditions": "as component of the composition of the invention"}
{"smiles": "NCCCC[C@H](N)C(=O)O", "note": "[L-Lysine]", "values": [{"measurement": "effect on anxiety amelioration", "result": "positive effect"}]}
